Entries after “also recorded” stand apart in the source; their conditions may differ.
How the values were obtained:
[1] = tested on: dopamine D2/D3 receptors; assay: human PET/CT imaging with ^18F-fallypride, standard uptake values in organs; assay type: in vivo; settings: normal human subject
Protocol: The subjects were prepared by intravenous administration of ^18F-fallypride. After 80 minutes, the subjects were then positioned in the Siemen's PET/CT Biograph. The subjects were requested to lay still during the PET/CT data acquisition in the dimly lit quiet room but were free to open/shut their eyes. Static scans of 10 mins duration each were acquired at different bed positions.
The reconstructed dynamic PET data sets were first realigned to a reference summed image (50-80 minutes) to correct for patient motion and slight differences in positioning between the dynamic scans. These dynamic data sets were then used to create time-activity curves as well as pixel-by-pixel parametric images of the distribution volume ratio (DVR). The cerebellum (cerebellar lobes) was chosen as the reference region, having a minimal amount of specific binding to dopaminergic sites. The PET/CT data was analyzed to provide standard uptake values (SUV) in different organs which were identified using the CT image.

[2] = molecular target: T1, D2R (Homo sapiens, UniProt P14416); assay: human PET imaging of the pancreas region with whole body HR+ PET scanner; assay type: in vivo; settings: healthy volunteer, 80 mins post injection
T1 construct: from tissue; host or cells: pancreas region of a healthy human volunteer, in vivo
T1 sequence (P14416 whole entry): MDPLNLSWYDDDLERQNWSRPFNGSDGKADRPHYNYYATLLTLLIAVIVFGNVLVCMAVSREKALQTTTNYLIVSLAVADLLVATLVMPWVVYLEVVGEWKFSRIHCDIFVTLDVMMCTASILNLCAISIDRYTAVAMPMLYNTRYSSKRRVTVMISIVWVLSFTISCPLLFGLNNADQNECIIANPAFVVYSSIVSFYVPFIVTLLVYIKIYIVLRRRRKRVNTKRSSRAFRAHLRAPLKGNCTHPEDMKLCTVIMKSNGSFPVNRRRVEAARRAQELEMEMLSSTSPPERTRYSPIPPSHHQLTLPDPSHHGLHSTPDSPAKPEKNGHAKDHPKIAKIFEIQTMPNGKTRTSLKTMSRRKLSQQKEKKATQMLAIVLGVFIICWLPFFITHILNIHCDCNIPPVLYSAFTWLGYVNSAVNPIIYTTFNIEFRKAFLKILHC
Protocol: The subjects were prepared by placing one intravenous catheter in one arm for administration of the ^18F-fallypride. The subjects were then positioned in the PET scanner, and their alignment was marked for purposes of repositioning. The subjects were requested to lay still during the PET data acquisition in the dimly lit quiet room but were free to open/shut their eyes. The PET data was acquired with an EXACT HR+ PET scanner (in-plane FWHM=4.6 mm, axial FWHM=3.5 mm, axial FOV=15.52 cm). A 5-minute transmission scan using ^68Ge/^68Ga rod sources was acquired prior to administration of the radiopharmaceutical. Scanning was initiated with a 30-second bolus infusion of the radiopharmaceutical followed by a saline flush. A ^18F-fallypride dose of approximately 0.07 mCi/kg was administered to each of the subjects (subjects weight ranged between 70 to 95 kg). The dynamic scanning sequence consisted of 6 frames at 30 seconds, 7 frames at 1 minute, 5 frames at 2 minutes, 4 frames at 5 minutes and 4 frames at 10 minutes. The subject was marked for repositioning and then removed from the scanner for a 20-minute break period. A second dynamic sequence with 8 frames at 10 minutes each was acquired, yielding a total study time of approximately 3 hours. The data set was reconstructed using the ECAT v 7.2 software, with an OSEM algorithm (3 iterations, 16 subsets). […]

[3] = tested on: D2/D3 receptors; settings: cited from earlier work
[4] = arterial blood plasma at 3 hr; cited from earlier work
[5] = molecular target: T2, D2R (Rattus norvegicus, UniProt P61169); assay: in vitro autoradiography of ^18F-fallypride binding in rat pancreas sections; parameters: from tissue; host or cells: rat pancreas, 10 μm cryosections
T2 sequence (P61169 whole entry): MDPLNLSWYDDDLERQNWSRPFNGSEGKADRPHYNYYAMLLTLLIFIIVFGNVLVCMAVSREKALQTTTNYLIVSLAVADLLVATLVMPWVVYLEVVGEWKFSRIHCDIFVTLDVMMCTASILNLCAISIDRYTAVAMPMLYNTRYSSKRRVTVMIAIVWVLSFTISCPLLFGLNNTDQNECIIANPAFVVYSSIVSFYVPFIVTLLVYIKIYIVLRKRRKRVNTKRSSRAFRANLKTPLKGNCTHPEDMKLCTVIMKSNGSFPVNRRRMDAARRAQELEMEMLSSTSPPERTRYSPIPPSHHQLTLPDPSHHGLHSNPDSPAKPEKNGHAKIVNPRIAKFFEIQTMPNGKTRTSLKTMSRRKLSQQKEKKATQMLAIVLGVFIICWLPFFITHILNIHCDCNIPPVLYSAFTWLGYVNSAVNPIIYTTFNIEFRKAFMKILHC
Protocol: Male Sprague-Dawley rats (200-250 g) or male Lewis rats (100-150 g) were anesthetized and decapitated. The brain and pancreas was rapidly removed and frozen in isopentane at −20° C. […] Slices were stored at −20° C. Slices were preincubated for 10 minutes in 50 mM Tris-HCl, 120 mM NaCl, 5 mM KCl buffer (pH 7.4). Slices were then incubated with 1-2 μCi/cc of ^18F-fallypride at 37° C. for 1 hour. […] After incubation, slices were rinsed twice for 2 min in ice-cold buffer, dipped briefly in ice-cold water, blown dry and laid out for autoradiography. Slides with tissue samples were exposed to a multipurpose storage phosphor screen for 24 hours and developed; the autoradiographs were generated using the Phosphor Cyclone Imager (Packard Instruments Co.) The amount of binding in the pancreas was measured as digital light units, DLU/mm^2. Autoradiographs were quantified using a computer-based image analysis system (OptiQuant Version 4.0 Packard Instruments Co., Boston Mass.).

[6] = molecular target: T2, D2R; assay: ^18F-fallypride binding to pancreatic and brain sections of control and streptozotocin-treated rats; parameters: from tissue; host or cells: pancreas, striatum and cerebellum sections of male Sprague-Dawley rats; species or system male Sprague-Dawley rats
Protocol: Male Sprague-Dawley rats were used to develop a model for diabetes. Streptozotocin (STZ) (80 mg/kg body weight, i.p. injection) chemically destroyed beta-cells and induced diabetes in adult male Sprague-Dawley rats (Lai et al., Am J Physiol Endocrinol Metab 2007 292:E292). Blood glucose was monitored by tail vein-sampling. Diabetic rats were harvested 7 days after the onset of diabetes. ^18F-fallypride binding to pancreatic and brain sections was done for three pairs of STZ- and age-matched rats. […] Specific binding was determined for each animal by subtracting nonspecific binding, measured in digital light units per mm^2 (DLU/mm^2), from total binding for adjacent tissue sections in brain and pancreas.

[7] = molecular target: T2, D2R; assay: ex vivo autoradiography of brain and pancreas after intravenous ^18F-fallypride; assay type: in vivo, Lewis rats; parameters: The brain and pancreas were isolated and sectioned to 10 μm and 40 μm sections; from tissue; host or cells: brain (striata, cerebellum) and pancreas of living Lewis rats
Protocol: For ex vivo studies, Lewis rats were anesthetized with halothane and injected intravenously with ^18F-fallypride (0.1 to 0.2 mCi). The rats were then sacrificed at either 60 or 120 min post-injection. The brain and pancreas were isolated and sectioned to 10 μm and 40 μm sections. Slides with tissue samples were exposed to a multipurpose storage phosphor screen for 24 hours and developed; the autoradiographs were generated using the Phosphor Cyclone Imager (Packard Instruments Co.). Brain slices contained the striata, cerebellum and other regions known to contain D2R. The amount of binding to the striata, cerebellum and pancreas was measured as digital light units, DLU/mm^2. Autoradiographs were quantified using a computer-based image analysis system (OptiQuant Version 4.0 Packard Instruments Co., Boston Mass.).

[8] = rat killed at 60 min post-injection

C=CCN1CCC[C@H]1CNC(=O)c1cc(CCC[18F])cc(OC)c1OC [^18F-fallypride]
Ratio Organ/Ant Abd muscle, Pancreas- Body [1]: 2.83 | Ratio Organ/Ant Abd muscle, Pancreas- Head [1]: 2.73 | Ratio Organ/Ant Abd muscle, Pancreas- Tail [1]: 3.10 | SUV, Anterior Abdominal Muscle [1]: 0.6 | SUV, Gall bladder [1]: 123 | SUV, Kidney [1]: 2.2 | SUV, Liver [1]: 5.0 | SUV, Liver left lobe [1]: 4.9 | SUV, Liver right lobe [1]: 5.1 | SUV, Lung [1]: 1.1 | SUV, Pancreas- Body [1]: 1.7 | SUV, Pancreas- Head [1]: 1.64 | SUV, Pancreas- Tail [1]: 1.86 | SUV, Psoas Muscle [1]: 0.9 | SUV, Spine (bone marrow) [1]: 2.8 | SUV, Spleen [1]: 1.5 | Uptake of ^18F-fallypride in the human pancreas [2]: comparable with that in the brain | decrease in binding with aging, all brain regions ([3]; human brain): > 10 % per decade | BP, orbitofrontal cortex ([3]; younger subject): 0.4 | BP, putamen ([3]; younger subject): 37 | plasma radioactivity that was ^18F-fallypride [4]: 30-40% | ^18F-fallypride binding to rat pancreatic sections ([5]; 10 μm sections, 37° C., 1 hour): binds to rat pancreatic sections | ^18F-Fallypride binding, Cerebellum ([6]; Control rats): 1597 ± 1382 DLU/mm^2 | ^18F-Fallypride binding, Pancreas ([6]; Control rats): 1393 ± 479 DLU/mm^2 | ^18F-Fallypride binding, Striatum ([6]; Control rats): 121,167 ± 41,190 DLU/mm^2 | change in ^18F-fallypride binding to control tissues striatum and cerebellum ([6]; STZ-treated rats vs control): no change | reduction of specific ^18F-fallypride binding in the pancreas ([6]; STZ-treated rats vs control, p<0.05): ~70% | ^18F-Fallypride binding, Cerebellum ([6]; Streptozotocin-treated rats): 1119 ± 632 DLU/mm^2 | ^18F-Fallypride binding, Striatum ([6]; Streptozotocin-treated rats): 112,059 ± 35,271 DLU/mm^2 | ^18F-Fallypride binding, Pancreas ([6]; Streptozotocin-treated rats, p < 0.05): 310 ± 303 DLU/mm^2 | binding in the pancreas ([7]; Rat #2 killed at 120 min): significant amount of binding | Ratio of pancreas to cerebellum [7, 8]: 5.3 | Ratio of striatum to cerebellum [7, 8]: 55.3

NCCc1ccc(O)c(O)c1 [Dopamine]
displacement of ^18F-fallypride binding to the pancreas ([5]; rat pancreatic sections, competitor 100 μM): does not displace; also recorded: did not displace
